According to the NIST ThermoML archive (doi:10.1016/j.fluid.2016.08.035):

Key:
[1] = molar heat capacity at constant pressure; xn = mol fraction of the nth substance listed; conditions: 101 kPa, Liquid, DSC
[2] = xn = mol fraction of the nth substance listed; conditions: 101 kPa, Liquid; for viscosity: Falling or rolling sphere viscometry; for speed of sound: Sing-around technique in a fixed-path interferometer; for mass density: Vibrating tube method

CC12CCC(CC1)C(C)(C)O2 [1,3,3-trimethyl-2-oxabicyclo[2.2.2]octane] + CCCCCCCCCC
Conditions	mass density, [2] [kg/m3]	molar heat capacity at constant pressure, [1] [J/K/mol]	speed of sound, [2] [m/s]	viscosity, [2] [mPa·s]
278.15 K, x1 = 0.1066	758.86	299.16	1315.5	1.29
278.15 K, x1 = 0.2007	775.04	293.5	1316.6	1.39
278.15 K, x1 = 0.2965	792.05	287.99	1318.2	1.5
278.15 K, x1 = 0.4063	812.26	282.04	1321.2	1.66
278.15 K, x1 = 0.5005	830.26	277.25	1324.7	1.82
278.15 K, x1 = 0.5959	849.15	272.59	1329	2.05
278.15 K, x1 = 0.7007	870.67	267.96	1335	2.39
278.15 K, x1 = 0.7989	891.66	263.81	1341.8	2.86
278.15 K, x1 = 0.8956	913.12	259.87	1349.5	3.41
278.15 K, x1 = 1	937.25	256.14	1359.6	4.21
298.15 K, x1 = 0.1066	743.66	308.32	1235.6	0.93
298.15 K, x1 = 0.2007	759.71	303.12	1237	1
298.15 K, x1 = 0.2965	776.57	298.17	1239.1	1.07
298.15 K, x1 = 0.4063	796.58	292.62	1242.3	1.16
298.15 K, x1 = 0.5005	814.39	288.12	1245.7	1.26
298.15 K, x1 = 0.5959	833.07	283.78	1250	1.41
298.15 K, x1 = 0.7007	854.34	279.2	1255.6	1.61
298.15 K, x1 = 0.7989	875.07	275.24	1261.9	1.86
298.15 K, x1 = 0.8956	896.24	271.44	1269.3	2.16
298.15 K, x1 = 1	920.04	267.69	1278.4	2.6
318.15 K, x1 = 0.1066	728.29	318.26	1157.5	0.71
318.15 K, x1 = 0.2007	744.21	313.35	1159.5	0.75
318.15 K, x1 = 0.2965	760.92	308.63	1162	0.81
318.15 K, x1 = 0.4063	780.75	303.32	1165.5	0.87
318.15 K, x1 = 0.5005	798.4	298.96	1169.1	0.93
318.15 K, x1 = 0.5959	816.88	294.7	1173.4	1.02
318.15 K, x1 = 0.7007	837.92	290.19	1179	1.14
318.15 K, x1 = 0.7989	858.42	286.17	1184.9	1.29
318.15 K, x1 = 0.8956	879.33	282.47	1192.3	1.48
318.15 K, x1 = 1	902.84	278.65	1201	1.73
338.15 K, x1 = 0.1066	712.7	328.92	1081.8	0.58
338.15 K, x1 = 0.2007	728.49	324.19	1083.9	0.6
338.15 K, x1 = 0.2965	745.06	319.65	1087.1	0.64
338.15 K, x1 = 0.4063	764.73	314.6	1091.2	0.69
338.15 K, x1 = 0.5005	782.2	310.38	1094.9	0.73
338.15 K, x1 = 0.5959	800.51	306.21	1099.3	0.79
338.15 K, x1 = 0.7007	821.36	301.78	1105.3	0.88
338.15 K, x1 = 0.7989	841.62	297.82	1111.3	0.98
338.15 K, x1 = 0.8956	862.32	294.23	1118.5	1.1
338.15 K, x1 = 1	885.57	290.33	1126.7	1.27
